Some test systems named below: COLO 205 colon; HS 578T breast; OVCAR-8 ovarian; SF-268 CNS; UACC-257 melanoma; TK-10 renal; MDA-MB-231 breast; HCC-2998 colon; 786-0 renal; EKVX NSCLC; K-562 leukemia.
What all share (test): growth of human tumour cells (NCI), 48 h

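In this assay, cells in 96-well plates receive the compound at five concentrations for 48 hours. Endpoints are linearly interpolated between the surrounding concentrations. Definition used: TGI = concentration required for complete inhibition of growth.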

As for `N/C(=N\NC(=O)c1nc2ccccc2s1)c1ccccn1`, the TGI in the experiment on COLO 205 colon is 27.6 µM; in the experiment with HS 578T breast, above 100 µM; with OVCAR-8 ovarian it was above 47.2 µM; with SF-268 CNS, above 100 µM; with UACC-257 melanoma, above 79.8 µM; with TK-10 renal, above 100 µM. Further, the TGI in the experiment on MDA-MB-231 breast was above 100 µM; with HCC-2998 colon it was above 61.5 µM; in the experiment with 786-0 renal it was 22.9 µM; in the experiment with EKVX NSCLC, above 63.6 µM; in the experiment on K-562 leukemia it was above 77.8 µM.
As to `CCCCC(=C=C(C)CO)C1CCCN1C(=O)OC(C)(C)C` (configuration not stated), the TGI with COLO 205 colon turned out to be 32.9 µM; in the experiment on HS 578T breast, 30.4 µM; in the experiment on OVCAR-8 ovarian, 37.3 µM; in the experiment on SF-268 CNS, 33.5 µM; in the experiment with UACC-257 melanoma it was 32.7 µM; in the experiment on TK-10 renal, 48.1 µM. Besides, the TGI amounted to 34 µM in the experiment with MDA-MB-231 breast; 20.3 µM in the experiment with HCC-2998 colon; 30.5 µM in the experiment with 786-0 renal; 44 µM in the experiment on EKVX NSCLC; 38.4 µM in the experiment on K-562 leukemia.
As to `Cc1nc(N)sc1C(=O)Nc1ncn[nH]1`, the TGI in the experiment on COLO 205 colon, with HS 578T breast, in the experiment with OVCAR-8 ovarian, in the experiment on SF-268 CNS, in the experiment with UACC-257 melanoma and in the experiment with TK-10 renal was above 100 µM throughout. Besides, the TGI in the experiment with MDA-MB-231 breast, with HCC-2998 colon, with 786-0 renal, in the experiment on EKVX NSCLC and with K-562 leukemia was above 100 µM throughout.
On to `O=C(N/N=C\c1cccs1)c1ccncc1`, for which the TGI with COLO 205 colon, in the experiment with HS 578T breast, in the experiment with OVCAR-8 ovarian, in the experiment with SF-268 CNS, in the experiment on UACC-257 melanoma and with TK-10 renal was above 100 µM each time. Moreover, the TGI in the experiment with MDA-MB-231 breast, with HCC-2998 colon, with 786-0 renal, in the experiment with EKVX NSCLC and in the experiment with K-562 leukemia was above 100 µM in each case.
For `C[C@@H](NC(=O)[C@@H]1C[C@]1(C)CO)c1cccc2ccccc12`, the TGI in the experiment on COLO 205 colon, in the experiment on HS 578T breast, in the experiment on OVCAR-8 ovarian, in the experiment on SF-268 CNS, in the experiment on UACC-257 melanoma and in the experiment with TK-10 renal was above 100 µM throughout. Also, the TGI in the experiment on MDA-MB-231 breast, in the experiment with HCC-2998 colon, with 786-0 renal, in the experiment with EKVX NSCLC and in the experiment on K-562 leukemia was above 100 µM in each case.
Turning to `N#C/C=c1/c2ccccc2n2nc3ccccc3c12`, the TGI with COLO 205 colon is 85.3 µM; in the experiment with HS 578T breast it was above 100 µM; with OVCAR-8 ovarian, above 100 µM; in the experiment with SF-268 CNS, 34 µM; with UACC-257 melanoma, above 100 µM; with TK-10 renal it was 30.5 µM. Moreover, the TGI was 16.6 µM in the experiment with MDA-MB-231 breast; above 100 µM with HCC-2998 colon; 19.8 µM in the experiment with 786-0 renal; above 100 µM with EKVX NSCLC; above 100 µM with K-562 leukemia.
Take `O=C1C(C(c2ccc([N+](=O)[O-])cc2)N2CCOCC2)=C(O)C(c2ccccc2)N1c1ccccc1` (configuration not stated): the TGI in the experiment on COLO 205 colon, in the experiment on HS 578T breast, with OVCAR-8 ovarian, in the experiment on SF-268 CNS, in the experiment on UACC-257 melanoma and in the experiment with TK-10 renal was above 10 µM throughout. Moreover, the TGI in the experiment on MDA-MB-231 breast, with HCC-2998 colon, in the experiment with 786-0 renal, in the experiment with EKVX NSCLC and in the experiment on K-562 leukemia was above 10 µM in each case.
On to `Cc1ccc(/C(O)=C/c2nc3cccnc3[nH]c2=O)cc1`, for which the TGI in the experiment with COLO 205 colon, in the experiment with HS 578T breast, in the experiment on OVCAR-8 ovarian, with SF-268 CNS, in the experiment on UACC-257 melanoma and in the experiment on TK-10 renal was above 100 µM in each case. In addition, the TGI with MDA-MB-231 breast, with HCC-2998 colon, in the experiment on 786-0 renal, in the experiment on EKVX NSCLC and in the experiment with K-562 leukemia was above 100 µM in each case.
On to `COc1ccc(OC)c(NC2=NCCO2)c1`, for which the TGI with COLO 205 colon, in the experiment with HS 578T breast, in the experiment on OVCAR-8 ovarian, in the experiment with SF-268 CNS, in the experiment with UACC-257 melanoma and in the experiment with TK-10 renal was above 100 µM in each case. Besides, the TGI in the experiment on MDA-MB-231 breast, with HCC-2998 colon, in the experiment with 786-0 renal, with EKVX NSCLC and in the experiment with K-562 leukemia was above 100 µM each time.
With `O=C(CNc1nccs1)Nn1cnc2ccc(S(=O)(=O)Nc3nccs3)cc2c1=O`, the TGI in the experiment on COLO 205 colon, in the experiment on HS 578T breast, in the experiment with OVCAR-8 ovarian, in the experiment with SF-268 CNS, in the experiment with UACC-257 melanoma and in the experiment with TK-10 renal was above 100 µM each time. Further, the TGI in the experiment with MDA-MB-231 breast, in the experiment on HCC-2998 colon, in the experiment on 786-0 renal, in the experiment on EKVX NSCLC and in the experiment on K-562 leukemia was above 100 µM in each case.
Regarding `COc1cc(NS(C)(=O)=O)ccc1NCc1cnc2ccc3[nH]cccc3c12`, the TGI was 31.3 µM in the experiment with COLO 205 colon; 47.5 µM in the experiment with HS 578T breast; 75.7 µM in the experiment with OVCAR-8 ovarian; 55.3 µM with SF-268 CNS; 32 µM with UACC-257 melanoma; above 81.8 µM in the experiment with TK-10 renal. For the same compound, the TGI in the experiment with MDA-MB-231 breast is 51 µM; in the experiment with HCC-2998 colon, 35.4 µM; with 786-0 renal, 54 µM; in the experiment with EKVX NSCLC, 57.7 µM; with K-562 leukemia it was 41 µM.
As to `C/C(=N/NC(=S)N(C)C)c1ccccc1O`, the TGI with COLO 205 colon was above 58.6 µM; in the experiment with HS 578T breast, above 100 µM; with OVCAR-8 ovarian, above 74.4 µM; with SF-268 CNS it was above 38.2 µM; in the experiment on UACC-257 melanoma, 63.4 µM; in the experiment with TK-10 renal, above 100 µM. Besides, the TGI in the experiment with MDA-MB-231 breast, in the experiment with HCC-2998 colon, in the experiment on 786-0 renal, in the experiment on EKVX NSCLC and in the experiment on K-562 leukemia was above 100 µM each time.

The values above are taken from PubChem BioAssay (NCI).
